Assay results: ChEMBL document CHEMBL1149752, “Antitumor agents, 135. Structure and stereochemistry of polacandrin, a new cytotoxic triterpene from Polanisia dodecandra” (1992)
Values after ≈ are worked out from the molar mass of the structure shown.

How the values were obtained:
Assay type in all cases: functional
Conditions in all cases: read-out: ED50 (the source's name)
KB = experiment: Cytotoxicity against human KB cells
P388 = experiment: Cytotoxicity against mouse P388 cells
RPMI-7951 = experiment: Cytotoxicity against human RPMI7951 cells
HCT-8 = experiment: Cytotoxicity against human HCT8 cells

**Q.** `CC(C)(O)[C@@H]1CC[C@@](C)([C@H]2CC[C@]3(C)[C@@H]2[C@H](O)C[C@@H]2[C@@]4(C)[C@H](O)C[C@@H](O)C(C)(C)[C@@H]4CC[C@]23C)O1` [POLACANDRIN] was tested. Which EC50 (KB) did it give?
**A.** 0.6 µg/mL (≈ 1.22 µM)

**Q.** And the EC50 (P388)?
**A.** 0.9 µg/mL (≈ 1.83 µM)

**Q.** And the EC50 (RPMI-7951)?
**A.** 0.62 µg/mL (≈ 1.26 µM)

**Q.** And the EC50 (HCT-8)?
**A.** 6.06 µg/mL (≈ 12.3 µM)
